Source: publication PMC8954523 (Pharmaceutics, 2022)

Experiment: Dissolution and solvation thermodynamic functions (van't Hoff; solubility minus sublimation)
Type: physicochemical
Protocol: The dissolution thermodynamic parameters on the standard state were determined using mole fraction unitary units. […] Since the resulting solutions are very dilute, and their densities are very close to those of the pure solvents. The density values of the pure solvents were used in calculations (Table S1). […] The temperature dependences of the experimental solubility were treated mathematically by the van't Hoff equation, and the apparent solution enthalpies ΔHsol0 were determined as follows:(3) ∂(lnX2)/∂T=ΔHsol0/RT^2 […] Next, the apparent solution entropies ΔSsol0 were derived by the equation:(5) ΔGsol0=ΔHso[…] The solvation of one mole of the solute molecules in the solvent can be defined as the total change of the standard thermodynamic functions ( ΔGsolv0 , ΔHsolv0 , ΔSsolv0 ) of the compound upon transferring it from the gaseous phase (ideal gas; single molecules without interaction) into the solvent. The transfer process can be presented as the difference between the dissolution and sublimation thermodynamic functions by:(6) ΔYsolv0=ΔYso[…] where ΔY^0 is the standard change of any of the thermodynamic functions (ΔG^0, ΔH^0, ΔS^0) of solvation ( ΔYsolv0 ), dissolution ( ΔYsol0 ) or sublimation ( ΔYsubo ).

[1] = Table S6, 1-octanol, all studied temperatures
[2] = Table S6, ethanol, all studied temperatures
[3] = Table S6, n-hexane, all studied temperatures
[4] = Table S6, water, all studied temperatures

Structure (SMILES): CC(O)(CS(=O)(=O)c1ccc(F)cc1)C(=O)Nc1ccc(C#N)c(C(F)(F)F)c1 (centres unmarked) [BCL, bicalutamide]
- TΔSsol0 (1-octanol, 298.15 K): 0.263 kcal/mol
- ΔGsol0 (1-octanol, 298.15 K): 4.9 kcal/mol
- ΔHsol0 (1-octanol, 298.15 K): 5.16 ± 0.096 kcal/mol
- ΔSsol0 (1-octanol, 298.15 K): 3.7 ± 3.6 J∙mol^−1·K^−1
- ζHsolv (1-octanol, 298.15 K): 63.3%
- ζTSsolv (1-octanol, 298.15 K): 36.7%
- −TΔSsolv0 (1-octanol, 298.15 K): 14.3 kcal/mol
- −ΔGsolv0 (1-octanol, 298.15 K): 10.3 kcal/mol
- −ΔHsolv0 (1-octanol, 298.15 K): 24.64 kcal/mol
- −ΔSsolv0 (1-octanol, 298.15 K): 200.9 J∙mol^−1·K^−1
- TΔSsol0 (Table S6, 1-octanol, 293.15 K): 0.265 kcal/mol
- ΔGsol0 (Table S6, 1-octanol, 293.15 K): 4.897 kcal/mol
- ΔSsol0 (Table S6, 1-octanol, 293.15 K): 3.79 J∙mol-1·K-1
- ζTSsolv (Table S6, 1-octanol, 293.15 K): 36.74%
- −TΔSsolv0 (Table S6, 1-octanol, 293.15 K): 14.31 kcal/mol
- −ΔGsolv0 (Table S6, 1-octanol, 293.15 K): 10.33 kcal/mol
- TΔSsol0 (Table S6, 1-octanol, 298.15 K): 0.265 kcal/mol
- ΔGsol0 (Table S6, 1-octanol, 298.15 K): 4.897 kcal/mol
- ΔSsol0 (Table S6, 1-octanol, 298.15 K): 3.73 J∙mol-1·K-1
- ζTSsolv (Table S6, 1-octanol, 298.15 K): 36.74%
- −TΔSsolv0 (Table S6, 1-octanol, 298.15 K): 14.31 kcal/mol
- −ΔGsolv0 (Table S6, 1-octanol, 298.15 K): 10.33 kcal/mol
- −ΔSsolv0 (Table S6, 1-octanol, 298.15 K): 200.87 J∙mol-1·K-1
- TΔSsol0 (Table S6, 1-octanol, 303.15 K): 0.275 kcal/mol
- ΔGsol0 (Table S6, 1-octanol, 303.15 K): 4.888 kcal/mol
- ΔSsol0 (Table S6, 1-octanol, 303.15 K): 3.81 J∙mol-1·K-1
- ζHsolv (Table S6, 1-octanol, 303.15 K): 63.27%
- ζTSsolv (Table S6, 1-octanol, 303.15 K): 36.73%
- −TΔSsolv0 (Table S6, 1-octanol, 303.15 K): 14.3 kcal/mol
- −ΔGsolv0 (Table S6, 1-octanol, 303.15 K): 10.34 kcal/mol
- TΔSsol0 (Table S6, 1-octanol, 308.15 K): 0.272 kcal/mol
- ΔGsol0 (Table S6, 1-octanol, 308.15 K): 4.89 kcal/mol
- ΔSsol0 (Table S6, 1-octanol, 308.15 K): 3.70 J∙mol-1·K-1
- ζHsolv (Table S6, 1-octanol, 308.15 K): 63.27%
- ζTSsolv (Table S6, 1-octanol, 308.15 K): 36.73%
- −TΔSsolv0 (Table S6, 1-octanol, 308.15 K): 14.31 kcal/mol
- −ΔGsolv0 (Table S6, 1-octanol, 308.15 K): 10.33 kcal/mol
- TΔSsol0 (Table S6, 1-octanol, 313.15 K): 0.287 kcal/mol
- ΔGsol0 (Table S6, 1-octanol, 313.15 K): 4.876 kcal/mol
- ΔSsol0 (Table S6, 1-octanol, 313.15 K): 3.82 J∙mol-1·K-1
- ζHsolv (Table S6, 1-octanol, 313.15 K): 63.29%
- −ΔSsolv0 (Table S6, 1-octanol, 313.15 K): 190.96 J∙mol-1·K-1
- ΔHsol0 [1]: 5.16 kcal/mol
- −ΔHsolv0 [1]: 24.64 kcal/mol
- TΔSsol0 (Table S6, ethanol, 293.15 K): 2.964 kcal/mol
- ΔGsol0 (Table S6, ethanol, 293.15 K): 3.944 kcal/mol
- ΔSsol0 (Table S6, ethanol, 293.15 K): 42.29 J∙mol-1·K-1
- ζHsolv (Table S6, ethanol, 293.15 K): 66.34%
- TΔSsol0 (Table S6, ethanol, 298.15 K): 3.023 kcal/mol
- ΔGsol0 (Table S6, ethanol, 298.15 K): 3.872 kcal/mol
- ΔSsol0 (Table S6, ethanol, 298.15 K): 42.43 J∙mol-1·K-1
- ζTSsolv (Table S6, ethanol, 298.15 K): 33.54%
- −ΔGsolv0 (Table S6, ethanol, 298.15 K): 11.34 kcal/mol
- TΔSsol0 (Table S6, ethanol, 303.15 K): 3.081 kcal/mol
- ΔGsol0 (Table S6, ethanol, 303.15 K): 3.826 kcal/mol
- ΔSsol0 (Table S6, ethanol, 303.15 K): 42.52 J∙mol-1·K-1
- ζTSsolv (Table S6, ethanol, 303.15 K): 33.43%
- −TΔSsolv0 (Table S6, ethanol, 303.15 K): 11.5 kcal/mol
- −ΔGsolv0 (Table S6, ethanol, 303.15 K): 11.4 kcal/mol
- −ΔSsolv0 (Table S6, ethanol, 303.15 K): 158.70 J∙mol-1·K-1
- TΔSsol0 (Table S6, ethanol, 308.15 K): 3.136 kcal/mol
- ΔGsol0 (Table S6, ethanol, 308.15 K): 3.772 kcal/mol
- ΔSsol0 (Table S6, ethanol, 308.15 K): 42.56 J∙mol-1·K-1
- ζTSsolv (Table S6, ethanol, 308.15 K): 33.32%
- −TΔSsolv0 (Table S6, ethanol, 308.15 K): 11.44 kcal/mol
- −ΔGsolv0 (Table S6, ethanol, 308.15 K): 11.45 kcal/mol
- TΔSsol0 (Table S6, ethanol, 313.15 K): 3.162 kcal/mol
- ΔGsol0 (Table S6, ethanol, 313.15 K): 3.745 kcal/mol
- ΔSsol0 (Table S6, ethanol, 313.15 K): 42.24 J∙mol-1·K-1
- ζTSsolv (Table S6, ethanol, 313.15 K): 33.27%
- −TΔSsolv0 (Table S6, ethanol, 313.15 K): 11.42 kcal/mol
- −ΔGsolv0 (Table S6, ethanol, 313.15 K): 11.48 kcal/mol
- ΔHsol0 [2]: 6.91 kcal/mol
- −ΔHsolv0 [2]: 22.9 kcal/mol
- TΔSsol0 (Table S6, n-hexane, 293.15 K): 3.537 kcal/mol
- ΔGsol0 (Table S6, n-hexane, 293.15 K): 8.222 kcal/mol
- ζTSsolv (Table S6, n-hexane, 293.15 K): 37.96%
- TΔSsol0 (Table S6, n-hexane, 298.15 K): 3.59 kcal/mol
- ΔGsol0 (Table S6, n-hexane, 298.15 K): 8.174 kcal/mol
- ΔSsol0 (Table S6, n-hexane, 298.15 K): 50.70 J∙mol-1·K-1
- ζHsolv (Table S6, n-hexane, 298.15 K): 62.20%
- −TΔSsolv0 (Table S6, n-hexane, 298.15 K): 10.97 kcal/mol
- −ΔSsolv0 (Table S6, n-hexane, 298.15 K): 153.88 J∙mol-1·K-1
- TΔSsol0 (Table S6, n-hexane, 303.15 K): 3.681 kcal/mol
- ΔGsol0 (Table S6, n-hexane, 303.15 K): 8.078 kcal/mol
- ΔSsol0 (Table S6, n-hexane, 303.15 K): 50.81 J∙mol-1·K-1
- ζTSsolv (Table S6, n-hexane, 303.15 K): 37.65%
- −ΔSsolv0 (Table S6, n-hexane, 303.15 K): 150.42 J∙mol-1·K-1
- TΔSsol0 (Table S6, n-hexane, 308.15 K): 3.738 kcal/mol
- ΔGsol0 (Table S6, n-hexane, 308.15 K): 8.021 kcal/mol
- ΔSsol0 (Table S6, n-hexane, 308.15 K): 50.75 J∙mol-1·K-1
- ζTSsolv (Table S6, n-hexane, 308.15 K): 37.53%
- −TΔSsolv0 (Table S6, n-hexane, 308.15 K): 10.84 kcal/mol
- −ΔGsolv0 (Table S6, n-hexane, 308.15 K): 7.204 kcal/mol
- −ΔSsolv0 (Table S6, n-hexane, 308.15 K): 147.20 J∙mol-1·K-1
- TΔSsol0 (Table S6, n-hexane, 313.15 K): 3.793 kcal/mol
- ΔGsol0 (Table S6, n-hexane, 313.15 K): 7.966 kcal/mol
- ζTSsolv (Table S6, n-hexane, 313.15 K): 37.41%
- −TΔSsolv0 (Table S6, n-hexane, 313.15 K): 10.79 kcal/mol
- −ΔGsolv0 (Table S6, n-hexane, 313.15 K): 7.259 kcal/mol
- TΔSsol0 (Table S6, n-hexane, 318.15 K): 3.841 kcal/mol
- ΔGsol0 (Table S6, n-hexane, 318.15 K): 7.918 kcal/mol
- ΔSsol0 (Table S6, n-hexane, 318.15 K): 50.50 J∙mol-1·K-1
- ζHsolv (Table S6, n-hexane, 318.15 K): 62.69%
- −TΔSsolv0 (Table S6, n-hexane, 318.15 K): 10.74 kcal/mol
- −ΔGsolv0 (Table S6, n-hexane, 318.15 K): 7.306 kcal/mol
- −ΔSsolv0 (Table S6, n-hexane, 318.15 K): 141.22 J∙mol-1·K-1
- ΔHsol0 [3]: 11.8 kcal/mol
- −ΔHsolv0 [3]: 18 kcal/mol
- ζHsolv (Table S6, water, 293.15 K): 58.17%
- ζHsolv (Table S6, water, 298.15 K): 58.17%
- −ΔSsolv0 (Table S6, water, 298.15 K): 211.97 J∙mol-1·K-1
- ζHsolv (Table S6, water, 303.15 K): 58.17%
- ζHsolv (Table S6, water, 308.15 K): 58.13%
- −TΔSsolv0 (Table S6, water, 308.15 K): 15.13 kcal/mol
- −ΔGsolv0 (Table S6, water, 308.15 K): 5.877 kcal/mol
- −ΔSsolv0 (Table S6, water, 308.15 K): 205.45 J∙mol-1·K-1
- ζHsolv (Table S6, water, 313.15 K): 58.12%
- −TΔSsolv0 (Table S6, water, 313.15 K): 15.14 kcal/mol
- −ΔGsolv0 (Table S6, water, 313.15 K): 5.872 kcal/mol
- ΔHsol0 [4]: 8.8 kcal/mol
- −ΔHsolv0 [4]: 21 kcal/mol
- TΔSsol0 (ethanol, 298.15 K): 3.04 kcal/mol
- ΔGsol0 (ethanol, 298.15 K): 3.87 kcal/mol
- ΔHsol0 (ethanol, 298.15 K): 6.91 ± 0.22 kcal/mol
- ΔSsol0 (ethanol, 298.15 K): 42.6 ± 5.1 J∙mol^−1·K^−1
- ζHsolv (ethanol, 298.15 K): 66.5%
- ζTSsolv (ethanol, 298.15 K): 33.5%
- −TΔSsolv0 (ethanol, 298.15 K): 11.5 kcal/mol
- −ΔGsolv0 (ethanol, 298.15 K): 11.4 kcal/mol
- −ΔHsolv0 (ethanol, 298.15 K): 22.9 kcal/mol
- −ΔSsolv0 (ethanol, 298.15 K): 162.0 J∙mol^−1·K^−1
- TΔSsol0 (n-hexane, 298.15 K): 3.59 kcal/mol
- ΔGsol0 (n-hexane, 298.15 K): 8.17 kcal/mol
- ΔHsol0 (n-hexane, 298.15 K): 11.8 ± 0.17 kcal/mol
- ΔSsol0 (n-hexane, 298.15 K): 50.3 ± 3.4 J∙mol^−1·K^−1
- ζHsolv (n-hexane, 298.15 K): 62.1%
- ζTSsolv (n-hexane, 298.15 K): 37.9%
- −TΔSsolv0 (n-hexane, 298.15 K): 11 kcal/mol
- −ΔGsolv0 (n-hexane, 298.15 K): 7.05 kcal/mol
- −ΔHsolv0 (n-hexane, 298.15 K): 18 kcal/mol
- −ΔSsolv0 (n-hexane, 298.15 K): 154.3 J∙mol^−1·K^−1
- TΔSsol0 (water, 298.15 K): -0.526 kcal/mol
- ΔGsol0 (water, 298.15 K): 9.32 kcal/mol
- ΔHsol0 (water, 298.15 K): 8.8 ± 0.14 kcal/mol
- ΔSsol0 (water, 298.15 K): −7.4 ± 0.3 J∙mol^−1·K^−1
- ζHsolv (water, 298.15 K): 58.2%
- ζTSsolv (water, 298.15 K): 41.8%
- −TΔSsolv0 (water, 298.15 K): 15.1 kcal/mol
- −ΔGsolv0 (water, 298.15 K): 5.9 kcal/mol
- −ΔHsolv0 (water, 298.15 K): 21 kcal/mol
- −ΔSsolv0 (water, 298.15 K): 212.0 J∙mol^−1·K^−1
